Laboratory results: US10131652B2, “Pyrimidinyloxy benzene derivatives as herbicides” (E. I. DU PONT DE NEMOURS AND COMPANY, priority 2014, dated 2018)

Tests used:
Assay type in all cases: in vivo
[1] = test system: barnyardgrass (Echinochloa crus-galli); assay: Test D pre-/postemergence plant response
How it was run: (§1)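 Seeds sown in loam–sand blend got preemergence sprays of test chemicals in a non-phytotoxic solvent with surfactant; postemergence sprays went on plants at 1- to 4-leaf stage (2 to 18 cm) in peat/vermiculite medium. After 13 to 15 days in greenhouse, visual injury versus controls scored 0 (no effect) to 100 (complete control).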

[2] = test system: giant foxtail (Setaria faberii); assay: Test D pre-/postemergence plant response
How it was run: as §1

[3] = test system: blackgrass (Alopecurus myosuroides); assay: Test D pre-/postemergence plant response
How it was run: as §1

[4] = test system: oilseed rape (Brassica napus); assay: Test D pre-/postemergence plant response
How it was run: as §1

[5] = test system: johnsongrass (Sorghum halepense); assay: Test D pre-/postemergence plant response
How it was run: as §1

[6] = test system: pigweed (Amaranthus retroflexus); assay: Test D pre-/postemergence plant response
How it was run: as §1

[7] = test system: velvetleaf (Abutilon theophrasti); assay: Test D pre-/postemergence plant response
How it was run: as §1

[8] = test system: ragweed (common ragweed, Ambrosia elatior); assay: Test B pre-/postemergence plant response
How it was run: (§2)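 Ratings reflect visual injury versus untreated controls, from 0 for no effect to 100 for complete control, assessed roughly 10 days after treatment. Formulation: non-phytotoxic solvent mix with surfactant; pre- and postemergence sprays on plants grown in loam soil and sand.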

[9] = test system: Italian ryegrass (Lolium multiflorum); assay: Test B pre-/postemergence plant response
How it was run: as §2

kochia (Kochia scoparia) = assay: Test B pre-/postemergence plant response
How it was run: as §2

[10] = test system: barnyardgrass (Echinochloa crus-galli); assay: Test C flooded paddy test plant response; settings: Flood, 250 g ai/ha; scale of 0 to 100 where 0 is no effect and 100 is complete control; 13 to 15 days
How it was run: (§3)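 Scored visually on a 0–100 scale (100 = complete control) against untreated plants 13 to 15 days after treatment in the greenhouse. Compounds went into paddy water of pots flooded to 3 cm, holding 2-leaf-stage plants.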

[11] = test system: small-flower umbrella sedge (Cyperus difformis); assay: Test C flooded paddy test plant response; settings: Flood, 250 g ai/ha; scale of 0 to 100 where 0 is no effect and 100 is complete control; 13 to 15 days
How it was run: as §3

[12] = test system: ducksalad (Heteranthera limosa); assay: Test C flooded paddy test plant response; settings: Flood, 250 g ai/ha; scale of 0 to 100 where 0 is no effect and 100 is complete control; 13 to 15 days
How it was run: as §3

rice (Oryza sativa) = assay: Test C flooded paddy test plant response; settings: Flood, 250 g ai/ha; scale of 0 to 100 where 0 is no effect and 100 is complete control; 13 to 15 days
How it was run: as §3

[13] = Postemergence, 16 g ai/ha, scale 0 to 100 (0 no effect, 100 complete control)
[14] = Postemergence, 31 g ai/ha, scale 0 to 100 (0 no effect, 100 complete control)
[15] = Postemergence, 62 g ai/ha, scale 0 to 100, 0 no effect, 100 complete control
[16] = Postemergence, 125 g ai/ha, scale 0 to 100, 0 no effect, 100 complete control
[17] = Preemergence, 16 g ai/ha, scale 0 to 100 (0 no effect, 100 complete control)
[18] = Preemergence, 31 g ai/ha, scale 0 to 100 (0 no effect, 100 complete control)
[19] = Preemergence, 62 g ai/ha, scale 0 to 100 (0 no effect, 100 complete control)
[20] = 31 g ai/ha, Postemergence, 0 to 100 scale, 0 no effect, 100 complete control
[21] = 31 g ai/ha, Preemergence, 0 to 100 scale where 0 is no effect and 100 is complete control
[22] = 125 g ai/ha, postemergence, 0 to 100 scale, 0 no effect, 100 complete control
[23] = Preemergence, 125 g ai/ha, 0 to 100 scale where 0 is no effect and 100 is complete control

Fc1ccc(Oc2ncc(Cl)cn2)c(-c2cc(C(F)F)on2)c1F [Compound 113]
Barnyardgrass plant response rating [1, 13]: 10
Barnyardgrass plant response rating [1, 14]: 15
Plant response rating, Barnyardgrass [1, 15]: 20
Plant response rating, Barnyardgrass [1, 16]: 25
Plant response rating (scale 0 to 100), Barnyardgrass ([1]; Preemergence, 62 g ai/ha): 98
Plant response rating (scale 0 to 100), Barnyardgrass ([1]; Preemergence, 125 g ai/ha): 100
Plant response rating, Barnyardgrass [1, 17]: 30
Plant response rating, Barnyardgrass [1, 18]: 95
Foxtail, Giant plant response rating [2, 13]: 5
Foxtail, Giant plant response rating [2, 14]: 5
Plant response rating, Foxtail, Giant [2, 15]: 10
Plant response rating, Foxtail, Giant [2, 16]: 10
Plant response rating (scale 0 to 100), Foxtail, Giant ([2]; Preemergence, 125 g ai/ha): 100
Plant response rating, Foxtail, Giant [2, 17]: 85
Plant response rating, Foxtail, Giant [2, 18]: 100
Plant response rating, Foxtail, Giant [2, 19]: 100
Blackgrass plant response rating [3, 13]: 5
Blackgrass plant response rating [3, 14]: 15
Plant response rating, Blackgrass [3, 15]: 10
Plant response rating, Blackgrass [3, 16]: 40
Plant response rating (scale 0 to 100), Blackgrass ([3]; Preemergence, 125 g ai/ha): 80
Plant response rating, Blackgrass [3, 17]: 10
Plant response rating, Blackgrass [3, 18]: 40
Plant response rating, Blackgrass [3, 19]: 70
Oilseed Rape plant response rating [4, 13]: 80
Oilseed Rape plant response rating [4, 14]: 50
Plant response rating, Oilseed Rape [4, 15]: 90
Plant response rating, Oilseed Rape [4, 16]: 90
Plant response rating (scale 0 to 100), Oilseed Rape ([4]; Preemergence, 125 g ai/ha): 100
Plant response rating, Oilseed Rape [4, 17]: 98
Plant response rating, Oilseed Rape [4, 18]: 100
Plant response rating, Oilseed Rape [4, 19]: 100
Johnsongrass plant response rating [5, 13]: 5
Johnsongrass plant response rating [5, 14]: 5
Plant response rating, Johnsongrass [5, 15]: 5
Plant response rating, Johnsongrass [5, 16]: 10
Plant response rating (scale 0 to 100), Johnsongrass ([5]; Preemergence, 125 g ai/ha): 100
Plant response rating, Johnsongrass [5, 17]: 10
Plant response rating, Johnsongrass [5, 18]: 70
Plant response rating, Johnsongrass [5, 19]: 90
Pigweed plant response rating [6, 13]: 90
Pigweed plant response rating [6, 14]: 90
Plant response rating, Pigweed [6, 15]: 95
Plant response rating, Pigweed [6, 16]: 100
Plant response rating (scale 0 to 100), Pigweed ([6]; Preemergence, 125 g ai/ha): 100
Plant response rating, Pigweed [6, 17]: 100
Plant response rating, Pigweed [6, 18]: 100
Plant response rating, Pigweed [6, 19]: 100
Velvetleaf plant response rating [7, 13]: 60
Velvetleaf plant response rating [7, 14]: 60
Plant response rating, Velvetleaf [7, 15]: 70
Plant response rating, Velvetleaf [7, 16]: 70
Plant response rating (scale 0 to 100), Velvetleaf ([7]; Preemergence, 125 g ai/ha): 100
Plant response rating, Velvetleaf [7, 17]: 70
Plant response rating, Velvetleaf [7, 18]: 85
Plant response rating, Velvetleaf [7, 19]: 100
Plant response rating, Ragweed [8, 20]: 50
Plant response rating, Ragweed [8, 21]: 30
Plant response rating, Ragweed [8, 22]: 80
Plant response rating, Ryegrass, Italian [9, 20]: 20
Plant response rating, Ryegrass, Italian [9, 21]: 10
Plant response rating, Ryegrass, Italian [9, 22]: 70
Plant response rating, Kochia (kochia (Kochia scoparia); [20]): 100
Plant response rating, Kochia (kochia (Kochia scoparia); [21]): 100
Plant response rating, Kochia (kochia (Kochia scoparia); [22]): 100
Plant response rating, Kochia (kochia (Kochia scoparia); [23]): 100
Barnyardgrass plant response rating [10]: 0
Sedge, Umbrella plant response rating [11]: 95
Ducksalad plant response rating [12]: 95
Rice plant response rating (rice (Oryza sativa)): 15

FC(Cl)c1cc(-c2ccccc2Oc2ncc(Cl)cn2)no1 (stereo not shown) [Compound 116]
Barnyardgrass plant response rating [1, 13]: 5
Barnyardgrass plant response rating [1, 14]: 5
Plant response rating, Barnyardgrass [1, 15]: 20
Plant response rating, Barnyardgrass [1, 16]: 30
Foxtail, Giant plant response rating [2, 13]: 5
Foxtail, Giant plant response rating [2, 14]: 5
Plant response rating, Foxtail, Giant [2, 15]: 10
Plant response rating, Foxtail, Giant [2, 16]: 60
Blackgrass plant response rating [3, 13]: 0
Blackgrass plant response rating [3, 14]: 5
Plant response rating, Blackgrass [3, 15]: 5
Plant response rating, Blackgrass [3, 16]: 35
Oilseed Rape plant response rating [4, 13]: 50
Oilseed Rape plant response rating [4, 14]: 10
Plant response rating, Oilseed Rape [4, 15]: 55
Plant response rating, Oilseed Rape [4, 16]: 70
Johnsongrass plant response rating [5, 13]: 10
Johnsongrass plant response rating [5, 14]: 20
Plant response rating, Johnsongrass [5, 15]: 20
Pigweed plant response rating [6, 13]: 75
Pigweed plant response rating [6, 14]: 75
Plant response rating, Pigweed [6, 15]: 90
Plant response rating, Pigweed [6, 16]: 90
Velvetleaf plant response rating [7, 13]: 55
Velvetleaf plant response rating [7, 14]: 65
Plant response rating, Velvetleaf [7, 15]: 70
Plant response rating, Velvetleaf [7, 16]: 75
Plant response rating, Ragweed [8, 20]: 20
Plant response rating, Ragweed [8, 21]: 0
Plant response rating, Ragweed [8, 22]: 40
Plant response rating, Ryegrass, Italian [9, 20]: 0
Plant response rating, Ryegrass, Italian [9, 21]: 0
Plant response rating, Ryegrass, Italian [9, 22]: 30
Plant response rating, Kochia (kochia (Kochia scoparia); [20]): 90
Plant response rating, Kochia (kochia (Kochia scoparia); [21]): 60
Plant response rating, Kochia (kochia (Kochia scoparia); [22]): 90
Plant response rating, Kochia (kochia (Kochia scoparia); [23]): 60
Barnyardgrass plant response rating [10]: 0
Sedge, Umbrella plant response rating [11]: 90
Ducksalad plant response rating [12]: 95
Rice plant response rating (rice (Oryza sativa)): 30

Fc1cccc(Oc2ncc(Br)cn2)c1-c1cc(C(F)F)on1 [Compound 118]
Barnyardgrass plant response rating [1, 13]: 10
Barnyardgrass plant response rating [1, 14]: 20
Plant response rating, Barnyardgrass [1, 15]: 20
Plant response rating, Barnyardgrass [1, 16]: 30
Plant response rating (scale 0 to 100), Barnyardgrass ([1]; Preemergence, 62 g ai/ha): 100
Plant response rating (scale 0 to 100), Barnyardgrass ([1]; Preemergence, 125 g ai/ha): 100
Plant response rating, Barnyardgrass [1, 17]: 10
Plant response rating, Barnyardgrass [1, 18]: 60
Foxtail, Giant plant response rating [2, 13]: 5
Foxtail, Giant plant response rating [2, 14]: 15
Plant response rating, Foxtail, Giant [2, 15]: 10
Plant response rating, Foxtail, Giant [2, 16]: 20
Plant response rating (scale 0 to 100), Foxtail, Giant ([2]; Preemergence, 125 g ai/ha): 100
Plant response rating, Foxtail, Giant [2, 17]: 98
Plant response rating, Foxtail, Giant [2, 18]: 100
Plant response rating, Foxtail, Giant [2, 19]: 100
Blackgrass plant response rating [3, 13]: 5
Blackgrass plant response rating [3, 14]: 10
Plant response rating, Blackgrass [3, 15]: 15
Plant response rating, Blackgrass [3, 16]: 35
Plant response rating (scale 0 to 100), Blackgrass ([3]; Preemergence, 125 g ai/ha): 90
Plant response rating, Blackgrass [3, 17]: 0
Plant response rating, Blackgrass [3, 18]: 10
Plant response rating, Blackgrass [3, 19]: 60
Oilseed Rape plant response rating [4, 13]: 5
Oilseed Rape plant response rating [4, 14]: 30
Plant response rating, Oilseed Rape [4, 15]: 60
Plant response rating, Oilseed Rape [4, 16]: 95
Plant response rating (scale 0 to 100), Oilseed Rape ([4]; Preemergence, 125 g ai/ha): 100
Plant response rating, Oilseed Rape [4, 17]: 85
Plant response rating, Oilseed Rape [4, 18]: 98
Plant response rating, Oilseed Rape [4, 19]: 100
Johnsongrass plant response rating [5, 13]: 5
Johnsongrass plant response rating [5, 14]: 5
Plant response rating, Johnsongrass [5, 15]: 10
Plant response rating, Johnsongrass [5, 16]: 45
Plant response rating (scale 0 to 100), Johnsongrass ([5]; Preemergence, 125 g ai/ha): 100
Plant response rating, Johnsongrass [5, 17]: 10
Plant response rating, Johnsongrass [5, 18]: 70
Plant response rating, Johnsongrass [5, 19]: 85
Pigweed plant response rating [6, 13]: 80
Pigweed plant response rating [6, 14]: 95
Plant response rating, Pigweed [6, 15]: 95
Plant response rating, Pigweed [6, 16]: 98
Plant response rating (scale 0 to 100), Pigweed ([6]; Preemergence, 125 g ai/ha): 100
Plant response rating, Pigweed [6, 17]: 100
Plant response rating, Pigweed [6, 18]: 100
Plant response rating, Pigweed [6, 19]: 100
Velvetleaf plant response rating [7, 13]: 65
Velvetleaf plant response rating [7, 14]: 75
Plant response rating, Velvetleaf [7, 15]: 70
Plant response rating, Velvetleaf [7, 16]: 85
Plant response rating (scale 0 to 100), Velvetleaf ([7]; Preemergence, 125 g ai/ha): 100
Plant response rating, Velvetleaf [7, 17]: 80
Plant response rating, Velvetleaf [7, 18]: 70
Plant response rating, Velvetleaf [7, 19]: 100
Plant response rating, Ragweed [8, 20]: 30
Plant response rating, Ragweed [8, 21]: 20
Plant response rating, Ragweed [8, 22]: 50
Plant response rating, Ryegrass, Italian [9, 20]: 20
Plant response rating, Ryegrass, Italian [9, 21]: 20
Plant response rating, Ryegrass, Italian [9, 22]: 80
Plant response rating, Kochia (kochia (Kochia scoparia); [20]): 100
Plant response rating, Kochia (kochia (Kochia scoparia); [21]): 80
Plant response rating, Kochia (kochia (Kochia scoparia); [22]): 100
Plant response rating, Kochia (kochia (Kochia scoparia); [23]): 100
Barnyardgrass plant response rating [10]: 50
Sedge, Umbrella plant response rating [11]: 100
Ducksalad plant response rating [12]: 100
Rice plant response rating (rice (Oryza sativa)): 45
